Measurements reported in PubChem BioAssay (NCI).
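Growth conditions: 96-well plates. Treatment: test compound, 48 hours, 5 concentrations. Analysis: linear interpolation between bracketing concentrations; unreached endpoints set to highest concentration. TGI is the concentration that stops growth completely.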

What was measured:
Assay in all cases: growth of human tumour cells (NCI), 48 h
786-0 renal = test system: 786-0 renal
OVCAR-4 ovarian = test system: OVCAR-4 ovarian
HL-60(TB) leukemia = test system: HL-60(TB) leukemia
HOP-62 NSCLC = test system: HOP-62 NSCLC
EKVX NSCLC = test system: EKVX NSCLC
TK-10 renal = test system: TK-10 renal
HOP-92 NSCLC = test system: HOP-92 NSCLC
NCI/ADR-RES ovarian = test system: NCI/ADR-RES ovarian
HCT-116 colon = test system: HCT-116 colon
NCI-H226 lung = test system: NCI-H226 lung
NCI-H460 lung = test system: NCI-H460 lung
A549 NSCLC = test system: A549 NSCLC
SK-MEL-28 melanoma = test system: SK-MEL-28 melanoma
BT-549 breast = test system: BT-549 breast
A498 renal = test system: A498 renal
T-47D breast = test system: T-47D breast
CCRF-CEM leukemia = test system: CCRF-CEM leukemia
HCC-2998 colon = test system: HCC-2998 colon
UO-31 renal = test system: UO-31 renal
SF-539 CNS = test system: SF-539 CNS
SK-MEL-5 melanoma = test system: SK-MEL-5 melanoma
SN12C renal = test system: SN12C renal
SNB-19 CNS = test system: SNB-19 CNS
SK-OV-3 ovarian = test system: SK-OV-3 ovarian
SK-MEL-2 melanoma = test system: SK-MEL-2 melanoma
K-562 leukemia = test system: K-562 leukemia
UACC-257 melanoma = test system: UACC-257 melanoma
MDA-MB-435 = test system: MDA-MB-435
KM12 colon = test system: KM12 colon
NCI-H522 lung = test system: NCI-H522 lung
OVCAR-8 ovarian = test system: OVCAR-8 ovarian
SF-295 CNS = test system: SF-295 CNS
MCF7 breast = test system: MCF7 breast
SNB-75 CNS = test system: SNB-75 CNS
U251 CNS = test system: U251 CNS
RPMI-8226 leukemia = test system: RPMI-8226 leukemia
MDA-MB-231 breast = test system: MDA-MB-231 breast
MOLT-4 leukemia = test system: MOLT-4 leukemia
HT29 colon = test system: HT29 colon
PC-3 prostate = test system: PC-3 prostate
RXF 393 renal = test system: RXF 393 renal
MALME-3M melanoma = test system: MALME-3M melanoma
ACHN renal = test system: ACHN renal
IGROV1 ovarian = test system: IGROV1 ovarian
COLO 205 colon = test system: COLO 205 colon
MDA-N = test system: MDA-N
SW-620 colon = test system: SW-620 colon
OVCAR-5 ovarian = test system: OVCAR-5 ovarian
LOX IMVI melanoma = test system: LOX IMVI melanoma
SF-268 CNS = test system: SF-268 CNS
HCT-15 colon = test system: HCT-15 colon
NCI-H23 lung = test system: NCI-H23 lung
DU-145 prostate = test system: DU-145 prostate
HS 578T breast = test system: HS 578T breast
CAKI-1 renal = test system: CAKI-1 renal
M14 melanoma = test system: M14 melanoma
UACC-62 melanoma = test system: UACC-62 melanoma
OVCAR-3 ovarian = test system: OVCAR-3 ovarian

Q: Which results are given for COc1ccc(/C=C2\CC3C4CC=C5C[C@@H](N6CCCC6)CC[C@]5(C)C4CC[C@]3(C)[C@H]2O)cc1OC (stereo partly drawn)?
A: TGI (786-0 renal): 11.1 µM; TGI (OVCAR-4 ovarian): 17.1 µM; TGI (HL-60(TB) leukemia): 42.4 µM; TGI (HOP-62 NSCLC): 12.3 µM; TGI (EKVX NSCLC): 16.9 µM; TGI (TK-10 renal): 19.9 µM; TGI (HOP-92 NSCLC): 23.4 µM; TGI (NCI/ADR-RES ovarian): 19.2 µM; TGI (HCT-116 colon): 15.8 µM; TGI (NCI-H226 lung): 20.2 µM; TGI (NCI-H460 lung): 17.4 µM; TGI (A549 NSCLC): 17.6 µM; TGI (SK-MEL-28 melanoma): 20.1 µM; TGI (BT-549 breast): 16.5 µM; TGI (A498 renal): 17 µM; TGI (T-47D breast): 26.6 µM; TGI (CCRF-CEM leukemia): 50 µM; TGI (HCC-2998 colon): 11.7 µM; TGI (UO-31 renal): 18.5 µM; TGI (SF-539 CNS): 15.1 µM; TGI (SK-MEL-5 melanoma): 14.3 µM; TGI (SN12C renal): 18.3 µM; TGI (SNB-19 CNS): 19.1 µM; TGI (SK-OV-3 ovarian): 17.5 µM; TGI (SK-MEL-2 melanoma): 14.3 µM; TGI (K-562 leukemia): 37.5 µM; TGI (UACC-257 melanoma): 15.4 µM; TGI (MDA-MB-435): 14.3 µM; TGI (KM12 colon): 14.2 µM; TGI (NCI-H522 lung): 16 µM; TGI (OVCAR-8 ovarian): 23.8 µM; TGI (SF-295 CNS): 11.5 µM; TGI (MCF7 breast): 14.8 µM; TGI (SNB-75 CNS): 22.9 µM; TGI (U251 CNS): 15.8 µM; TGI (RPMI-8226 leukemia): 22.1 µM; TGI (MDA-MB-231 breast): 15.1 µM; TGI (MOLT-4 leukemia): 38.3 µM; TGI (HT29 colon): 15.3 µM; TGI (PC-3 prostate): 12.6 µM; TGI (RXF 393 renal): 25.2 µM; TGI (MALME-3M melanoma): 16.7 µM; TGI (ACHN renal): 16 µM; TGI (IGROV1 ovarian): 21.4 µM; TGI (COLO 205 colon): 15.8 µM; TGI (MDA-N): 14.9 µM; TGI (SW-620 colon): 50 µM; TGI (OVCAR-5 ovarian): 19 µM; TGI (LOX IMVI melanoma): 18.8 µM; TGI (SF-268 CNS): 22.4 µM; TGI (HCT-15 colon): 14.2 µM; TGI (NCI-H23 lung): 17.6 µM; TGI (DU-145 prostate): 22.4 µM; TGI (HS 578T breast): 26.9 µM; TGI (CAKI-1 renal): 16.7 µM; TGI (M14 melanoma): 16.8 µM; TGI (UACC-62 melanoma): 16 µM; TGI (OVCAR-3 ovarian): 16.8 µM
